Laboratory results taken from patent US7888331B2, “Ganglioside compositions and methods of use” (Seneb Biosciences, Inc., priority 2003, dated 2011).

System: mouse cortical cells
Assay: Protection of cortical cells from apoptosis (hydrogen peroxide, MTT)
Format: cell-based
Conditions: approx. 0.1 μM, 50 μM hydrogen peroxide
Experimental: To induce apoptosis, mouse cortical cells were cultured and treated with 50 μM hydrogen peroxide for three hours prior to being treated with the ganglioside analogue. The cells were also treated with the hydrogen peroxide during treatment with the ganglioside analogue and post-treatment for 48 h. Cell death was assayed using the MTT assay.

## LIGA-20
  protection of the cells from apoptosis: approximately 20%
